Experimental data: US20220265690A1, “USE OF SOTAGLIFLOZIN FOR THE TREATMENT OF PATIENTS WITH TYPE 2 DIABETES MELLITUS AND MODERATE RENAL IMPAIRMENT” (Lexicon Pharmaceuticals, Inc., priority 2019, published 2022)

How the values were obtained:
[1] = system: patients with T2D and documented moderate renal insufficiency (CKD 3A, 3B); assay: Multicentre, double-blind, placebo-controlled clinical study of sotagliflozin 200 mg and 400 mg once daily; HbA1c change at Week 26; assay type: in vivo; settings: for HbA1c (%) Change from baseline to Week 26 LS Mean difference (SE) vs. placebo / HbA1c (%) Change from baseline to Week 26 LS Mean (SE) / HbA1c (%) Week 26 Mean (SD) / HbA1c (%) Week 26 Median: overall ITT population; for HbA1c (%) Change from baseline to Week 26 LS Mean (SE): ANCOVA, multiple imputation; for LS mean change in HbA1c from baseline to W26 / mean HbA1c level reached at W26: sotagliflozin 400 mg
Protocol: The efficacy, relative to a placebo, […], was evaluated in multicentre, double-blind clinical with random distribution in three groups of treatment (group treated with sotagliflozin 200 mg daily dose, group treated with sotagliflozin 400 mg daily dose, and group treated with a placebo) of patients. The selected patients were adult patients with T2D (drug-naïve or on antidiabetic therapy) and documented moderate renal insufficiency defined by an eGFR (based on the 4 variable Modification of Diet in Renal Disease [MDRD] equation) of ≥30 and <60 mL/min/1.73 m^2 (CKD 3A, 3B). The study was conducted as follows: • Screening Phase—Visit 1 (up to 2 weeks) • Run-in phase (Visit 2), lasted 2 weeks. Patients were treated in a single-blind manner with two placebo tablets (identical to sotagliflozin 200 mg in appearance) administered once daily during the Run-in phase, starting from Visit 2 • Double-blind Treatment Period (Day 1 to Week 26): Eligible patients will be randomized on Day 1 (Visit 3). Following randomization, patients will be treated in a double-blind manner for 52 weeks. A total of 787 patients ≥18 years of age (or ≥legal age of the majority, whichever is greater) were randomly assigned 1:1:1 to the following 3 treatment groups: • Placebo, given as two (2) placebo tablets (identical to sotagliflozin 200 mg in appearance), once daily, before the first meal of the day • Sotagliflozin 200 mg, given as 2 tablets: 1 sotagliflozin 200 mg tablet and 1 placebo tablet (identical to sotagliflozin 200 mg in appearance), once daily • Sotagliflozin 400 mg, given as two (2) 200 mg tablets, once daily, before the first meal of the day. • Double-blind Extension Period (Week 27 to Week 52): • Follow-up Period Following the last dose of the IMP: a 4 week post-treatment visit to collect safety and some efficacy information. […] Efficacy analysis was based on the intent-to-treat (ITT) population using efficacy assessments obtained during the study, including those obtained after investigational medicinal product (IMP) discontinuation or introduction of rescue therapy. The ITT population consisted of all randomized patients. The primary efficacy endpoint was analyzed using an analysis of covariance (ANCOVA) model. The ANCOVA model included treatment groups (sotagliflozin 200 mg, sotagliflozin 400 mg, placebo), randomization stratum of HbA1c (≤8.5%, >8.5%), randomization stratum of SBP (<130, ≥130 mmHg), randomization stratum of CKD stage (3A, 3B), and country as fixed effects, and baseline HbA1c value as a covariate.

[2] = system: patients with type 2 diabetes; settings: phase II trials; cited from earlier work
[3] = sotagliflozin 200 mg once daily
[4] = sotagliflozin 400 mg once daily
[5] = sotagliflozin 400 mg once daily, listed as sotagliflozin

Compound: CCOc1ccc(Cc2cc([C@@H]3O[C@H](SC)[C@@H](O)[C@H](O)[C@H]3O)ccc2Cl)cc1 [Sotagliflozin, sotagliflozin]
- HbA1c (%) Change from baseline to Week 26 LS Mean difference (SE) vs. placebo ([1]; sotagliflozin 200 mg once daily, 95% CI (−0.244, 0.054), p-value 0.2129): −0.09 (0.076) %
- HbA1c (%) Change from baseline to Week 26 LS Mean (SE) [1, 3]: −0.32 (0.060) %
- HbA1c (%) Week 26 Mean (SD) [1, 3]: 7.82 (0.99) %
- HbA1c (%) Week 26 Median [1, 3]: 7.70%
- HbA1c (%) Change from baseline to Week 26 LS Mean difference (SE) vs. placebo ([1]; sotagliflozin 400 mg once daily, 95% CI (−0.382, −0.082), p-value 0.0024): −0.23 (0.076) %
- HbA1c (%) Change from baseline to Week 26 LS Mean (SE) [1, 4]: −0.46 (0.060) %
- HbA1c (%) Change from baseline to Week 26 LS Mean (SE) [1, 5]: −0.46%
- HbA1c (%) Week 26 Mean (SD) [1, 4]: 7.72 (1.00) %
- HbA1c (%) Week 26 Median [1, 4]: 7.60%
- HbA1c (%) Week 26 Mean (SD) [1, 5]: 7.72%
- LS mean change in HbA1c from baseline to W26 ([1]; CKD3A population): −0.54%
- mean HbA1c level reached at W26 ([1]; CKD3A population): 7.62%
- LS mean change in HbA1c from baseline to W26 ([1]; CKD3B population): −0.37%
- mean HbA1c level reached at W26 ([1]; CKD3B population): 7.82%
- glycemic control (reduction in A1C) [2]: significantly improve glycemic control
